In patent US7932270B2 (Cytokinetics, Inc., priority 2006, dated 2011):

Biological target: T1, chicken gizzard smooth muscle myosin subfragment-1 chemically crosslinked to cardiac or skeletal actin (Gallus gallus, UniProt P10587)
T1 construct: chicken gizzard smooth muscle myosin subfragment-1; from tissue; host or cells: chicken gizzard
Test: Smooth muscle myosin ATPase dose response assay (pyruvate kinase/horseradish peroxidase/pyruvate oxidase-coupled, amplex red fluorescence)
Assay type: biochemical
Settings: read-out: IC50 Arithmetic Mean
Procedure, shortened: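 Inhibition is measured in a peroxidase/pyruvate oxidase-linked format at pH 7.00 and 22° C, 0.15 mM ATP final. Myosin input is titrated to a target turnover since active fraction differs between preparations.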

T1 sequence (P02607 2-151): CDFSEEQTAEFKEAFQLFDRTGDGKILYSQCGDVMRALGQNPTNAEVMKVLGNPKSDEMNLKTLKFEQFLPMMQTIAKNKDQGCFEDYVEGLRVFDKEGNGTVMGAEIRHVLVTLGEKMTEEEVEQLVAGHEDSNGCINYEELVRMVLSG
T1 sequence (P10587 84-789): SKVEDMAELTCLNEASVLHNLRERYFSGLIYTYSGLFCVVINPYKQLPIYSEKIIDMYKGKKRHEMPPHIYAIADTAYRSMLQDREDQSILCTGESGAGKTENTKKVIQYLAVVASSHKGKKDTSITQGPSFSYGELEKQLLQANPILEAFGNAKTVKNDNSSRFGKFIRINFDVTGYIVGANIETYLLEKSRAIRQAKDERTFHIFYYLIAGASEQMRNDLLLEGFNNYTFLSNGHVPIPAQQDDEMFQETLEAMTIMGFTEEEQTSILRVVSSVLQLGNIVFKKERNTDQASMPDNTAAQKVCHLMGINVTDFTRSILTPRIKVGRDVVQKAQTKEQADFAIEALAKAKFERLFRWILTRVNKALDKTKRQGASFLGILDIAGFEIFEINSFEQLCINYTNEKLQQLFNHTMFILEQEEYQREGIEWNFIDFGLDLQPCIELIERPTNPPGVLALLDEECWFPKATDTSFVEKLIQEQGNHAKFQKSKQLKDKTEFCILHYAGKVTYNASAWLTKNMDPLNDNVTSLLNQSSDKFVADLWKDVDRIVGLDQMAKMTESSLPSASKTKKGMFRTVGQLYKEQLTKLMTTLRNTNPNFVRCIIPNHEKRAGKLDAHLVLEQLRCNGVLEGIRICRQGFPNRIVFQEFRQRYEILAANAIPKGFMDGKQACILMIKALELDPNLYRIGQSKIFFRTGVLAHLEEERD

| IC50 | Structure (SMILES) |
| --- | --- |
| 995 nM | N#Cc1ccccc1-c1ccc(C(=O)NC[C@@H]2CCCN2C(=O)CN)c(NCCc2cccc(F)c2)n1 [N-{[(2S)-1-(2-aminoacetyl)pyrrolidin-2-yl]methyl}(6-(2-cyanophenyl)-2-{[2-(3-fluorophenyl)ethyl]amino}(3-pyridyl))carboxamide] |
| 11300 nM | N#Cc1ccccc1-c1ccc(C(=O)NC[C@H]2CCCN2S(=O)(=O)CCCN2C(=O)c3ccccc3C2=O)c(NCCc2cccc(F)c2)n1 [N-[((2R)-1-{[3-(1,3-dioxobenzo[c]azolin-2-yl)propyl]sulfonyl}pyrrolidin-2-yl)methyl](6-(2-cyanophenyl)-2-{[2-(3-fluorophenyl)ethyl]amino}(3-pyridyl))carboxamide] |
| 148 nM | Cc1csc(-c2ccc(C(=O)NCc3cccnc3)c(NCCc3cccc(F)c3)n2)c1 [(2-{[2-(3-fluorophenyl)ethyl]amino}-6-(4-methyl(2-thienyl))(3-pyridyl))-N-(3-pyridylmethyl)carboxamide] |
| 318 nM | N#Cc1ccccc1-c1ccc(C(=O)NC[C@H]2CNCC(=O)N2CCCN)c(NCCc2cccc(F)c2)n1 [N-{[(2R)-1-(3-aminopropyl)-6-oxopiperazin-2-yl]methyl}(6-(2-cyanophenyl)-2-{[2-(3-fluorophenyl)ethyl]amino}(3-pyridyl))carboxamide] |
| 16800 nM | CCS(=O)(=O)N1CCNC[C@@H]1CNC(=O)c1ccc(-c2ccccc2C#N)nc1NCCc1cccc(F)c1 [N-{[(2R)-1-(ethylsulfonyl)piperazin-2-yl]methyl}(6-(2-cyanophenyl)-2-{[2-(3-fluorophenyl)ethyl]amino}(3-pyridyl))carboxamide] |
| 22 nM | N#Cc1ccccc1-c1ccc(C(=O)NCc2cccnc2N)c(NCCc2cccc(F)c2)n1 [N-[(2-amino(3-pyridyl))methyl](6-(2-cyanophenyl)-2-{[2-(3-fluorophenyl)ethyl]amino}(3-pyridyl))carboxamide] |
| 155 nM | N#Cc1ccccc1-c1ccc(C(=O)NC[C@H]2CCCCN2C(=O)CCN)c(NCCc2cccc(F)c2)n1 [N-{[(2R)-1-(3-aminopropanoyl)(2-piperidyl)]methyl}(6-(2-cyanophenyl)-2-{[2-(3-fluorophenyl)ethyl]amino}(3-pyridyl))carboxamide] |
| 1190 nM | O=C(NCc1cccnc1)c1ccc(-c2cc(CO)ccc2Cl)nc1NCCc1cccc(F)c1 [(6-[2-chloro-5-(hydroxymethyl)phenyl]-2-{[2-(3-fluorophenyl)ethyl]amino}(3-pyridyl))-N-(3-pyridylmethyl)carboxamide] |
| 2650 nM | N#Cc1ccccc1-c1nc(NCCc2cccc(F)c2)c(C(=O)NCc2cccnc2)cc1Br [(5-bromo-6-(2-cyanophenyl)-2-{[2-(3-fluorophenyl)ethyl]amino}(3-pyridyl))-N-(3-pyridylmethyl)carboxamide] |
| 598 nM | N#Cc1ccccc1-c1ccc(C(=O)NCc2cc(CN)ccn2)c(NCCc2cccc(F)c2)n1 [N-{[4-(aminomethyl)(2-pyridyl)]methyl}(6-(2-cyanophenyl)-2-{[2-(3-fluorophenyl)ethyl]amino}(3-pyridyl))carboxamide] |
| 55700 nM | NCc1ccsc1-c1ccc(C(=O)NCc2cccnc2)c(NCCc2cccc(F)c2)n1 [(6-[3-(aminomethyl)(2-thienyl)]-2-{[2-(3-fluorophenyl)ethyl]amino}(3-pyridyl))-N-(3-pyridylmethyl)carboxamide] |
| 1470 nM | CC(C)(CNC(=O)c1ccc(-c2ccccc2C#N)nc1NCCc1cccc(F)c1)NS(C)(=O)=O [(6-(2-cyanophenyl)-2-{[2-(3-fluorophenyl)ethyl]amino}(3-pyridyl))-N-{2-methyl-2-[(methylsulfonyl)amino]propyl}carboxamide] |
| 31 nM | N#Cc1ccccc1-c1ccc(C(=O)NCC2CCCN(CCN)C2=O)c(NCCc2cccc(F)c2)n1 (stereo not shown) [N-{[1-(2-aminoethyl)-2-oxo(3-piperidyl)]methyl}(6-(2-cyanophenyl)-2-{[2-(3-fluorophenyl)ethyl]amino}(3-pyridyl))carboxamide] |
| 57400 nM | CNC(=O)/C=C/c1ccc(-c2ccccc2)nc1NCCc1cccc(F)c1 [(2E)-3-(2-{[2-(3-fluorophenyl)ethyl]amino}-6-phenyl(3-pyridyl))-N-methylprop-2-enamide] |
| 21 nM | N#Cc1ccccc1-c1ccc(C(=O)NCc2ccc(N)cn2)c(NCCc2cccc(F)c2)n1 [N-[(5-amino(2-pyridyl))methyl](6-(2-cyanophenyl)-2-{[2-(3-fluorophenyl)ethyl]amino}(3-pyridyl))carboxamide] |
| 399 nM | C[C@@H](N)CNC(=O)c1ccc(-c2ccccc2C#N)nc1NCCc1cccc(F)c1 [N-((2R)-2-aminopropyl)(6-(2-cyanophenyl)-2-{[2-(3-fluorophenyl)ethyl]amino}(3-pyridyl))carboxamide] |

| IC50 | Structure (SMILES) |
| --- | --- |
| 50 nM | Cn1cc(-c2nc(NCCc3cccc(F)c3)c(C(=O)NC[C@H]3CCN3C(=O)CN)cc2F)cn1 [N-{[(2R)-1-(2-aminoacetyl)azetidin-2-yl]methyl}(5-fluoro-2-{[2-(3-fluorophenyl)ethyl]amino}-6-(1-methylpyrazol-4-yl)(3-pyridyl))carboxamide] |
| 4650 nM | N#Cc1cccc(CCNc2nc(-c3ccccc3)ccc2C(=O)NCc2cccnc2)c1 [(2-{[2-(3-cyanophenyl)ethyl]amino}-6-phenyl(3-pyridyl))-N-(3-pyridylmethyl)carboxamide] |
| 228 nM | Cn1cc(-c2ccc(C(=O)NCc3ccnn3CCCN)c(NCCc3cccc(F)c3)n2)cn1 [N-{[1-(3-aminopropyl)pyrazol-5-yl]methyl}(2-{[2-(3-fluorophenyl)ethyl]amino}-6-(1-methylpyrazol-4-yl)(3-pyridyl))carboxamide] |
| 117 nM | CC[C@H](CNC(=O)c1cc(F)c(-c2cnn(C)c2)nc1NCCc1cccc(F)c1)C(=O)OC [methyl (2R)-2-{[(5-fluoro-2-{[2-(3-fluorophenyl)ethyl]amino}-6-(1-methylpyrazol-4-yl)(3-pyridyl))carbonylamino]methyl}butanoate] |
| 103 nM | N#Cc1ccccc1-c1nc(NCCc2cccc(F)c2)c(C(=O)NC[C@H]2CCCN2)cc1F [N-[((2R)pyrrolidin-2-yl)methyl](6-(2-cyanophenyl)-5-fluoro-2-{[2-(3-fluorophenyl)ethyl]amino}(3-pyridyl))carboxamide] |
| 137 nM | O=C(NCc1cccnc1)c1ccc(-c2cccs2)nc1NCCc1cccc(F)c1 [(2-{[2-(3-fluorophenyl)ethyl]amino}-6-(2-thienyl)(3-pyridyl))-N-(3-pyridylmethyl)carboxamide] |
| 3960 nM | Cc1ccc(-c2ccc(C(=O)NCc3cccnc3)c(NCCc3ccccn3)n2)c(C)c1 [{6-(2,4-dimethylphenyl)-2-[(2-(2-pyridyl)ethyl)amino](3-pyridyl)}-N-(3-pyridylmethyl)carboxamide] |
| 61 nM | C[C@@H](CO)CNC(=O)c1ccc(-c2ccccc2C#N)nc1NCCc1cccc(F)c1 [N-((2R)-3-hydroxy-2-methylpropyl)(6-(2-cyanophenyl)-2-{[2-(3-fluorophenyl)ethyl]amino}(3-pyridyl))carboxamide] |
| 8770 nM | N#Cc1ccccc1-c1ccc(C(=O)NC[C@H]2CCCN2C(=O)CCCN)c(NCCC2CCOCC2)n1 |
| 307 nM | Cn1cc(-c2nc(NCCc3cccc(F)c3)c(C(=O)NCC(O)CO)cc2F)cn1 (stereo not shown) [N-(2,3-dihydroxypropyl)(5-fluoro-2-{[2-(3-fluorophenyl)ethyl]amino}-6-(1-methylpyrazol-4-yl)(3-pyridyl))carboxamide] |
| 11700 nM | N#Cc1ccccc1-c1ccc(C(=O)NCCCN2C(=O)CC[C@H]2CN)c(NCCc2cccc(F)c2)n1 [N-{3-[(5S)-5-(aminomethyl)-2-oxopyrrolidinyl]propyl}(6-(2-cyanophenyl)-2-{[2-(3-fluorophenyl)ethyl]amino}(3-pyridyl))carboxamide] |
| 4280 nM | COC(=O)N1CCCC[C@@H]1CNC(=O)c1ccc(-c2ccccc2C#N)nc1NCCc1cccc(F)c1 [methyl (2R)-2-{[(6-(2-cyanophenyl)-2-{[2-(3-fluorophenyl)ethyl]amino}(3-pyridyl))carbonylamino]methyl}piperidinecarboxylate] |
| 281 nM | Cn1cc(-c2nc(NCCc3cccc(F)c3)c(C(=O)NC[C@H]3CCCN3)cc2C#N)cn1 [N-[((2R)pyrrolidin-2-yl)methyl](5-cyano-2-{[2-(3-fluorophenyl)ethyl]amino}-6-(1-methylpyrazol-4-yl)(3-pyridyl))carboxamide] |
| 11 nM | N#Cc1ccccc1-c1ccc(C(=O)NCc2cccc(CCN)n2)c(NCCc2cccc(F)c2)n1 [N-{[6-(2-aminoethyl)(2-pyridyl)]methyl}(6-(2-cyanophenyl)-2-{[2-(3-fluorophenyl)ethyl]amino}(3-pyridyl))carboxamide] |
| 1300 nM | Cn1nccc1CNC(=O)c1ccc(-c2ccccc2)nc1NCCc1ccccn1 [N-[(1-methylpyrazol-5-yl)methyl]{6-phenyl-2-[(2-(2-pyridyl)ethyl)amino](3-pyridyl)}carboxamide] |
| 711 nM | O=C(NCc1cc[nH]n1)c1ccc(-c2ccccc2)nc1NCCc1ccccn1 [{6-phenyl-2-[(2-(2-pyridyl)ethyl)amino](3-pyridyl)}-N-(pyrazol-3-ylmethyl)carboxamide] |

| Structure (SMILES) | IC50 |
| --- | --- |
| CC(C)(C)OC(=O)NCCCN1CCC(CNC(=O)c2ccc(-c3ccccc3C#N)nc2NCCc2cccc(F)c2)C1=O (stereo not shown) [N-[(1-{3-[(tert-butoxy)carbonylamino]propyl}-2-oxopyrrolidin-3-yl)methyl](6-(2-cyanophenyl)-2-{[2-(3-fluorophenyl)ethyl]amino}(3-pyridyl))carboxamide] | 104 nM |
| C[C@H](NC(=O)OC(C)(C)C)C(=O)N1CCC[C@@H]1CNC(=O)c1cc(F)c(-c2cnn(C)c2)nc1NCCc1cccc(F)c1 [N-[2-((2R)-2-{[(5-fluoro-2-{[2-(3-fluorophenyl)ethyl]amino}-6-(1-methylpyrazol-4-yl)(3-pyridyl))carbonylamino]methyl}pyrrolidinyl)(1S)-1-methyl-2-oxoethyl](tert-butoxy)carboxamide] | 1950 nM |
